This is an account of results in patent US5852016A, “Quinoxaline derivatives useful in therapy” (Pfizer Inc., priority 1994, dated 1998).

The target of the test is T1, glycine site of the NMDA receptor (Rattus norvegicus, UniProt P35439).
T1 construct: displace a selective glycine site radioligand from rat brain membranes; from tissue; host or cells: rat brain membranes
In words: Binding affinity for the glycine site of the NMDA receptor (test (a)). The settings on record: displacement of selective glycine site radioligand ([3H]-L-689,560) from rat brain membranes. The method, then:
(a) Binding affinity for the glycine site of the NMDA receptor
This may be measured by testing a compound's ability to displace a selective glycine site radioligand from rat brain membranes as described in Brit J Pharm (1991), 104, 74. In a variation of this method, thoroughly washed membrane protein is incubated with [^3 H]-L-689,560 for 90 minutes using tris-acetate buffer (pH 7.4). Displacement of the radioligand, using a range of test compound concentrations, is used to derive IC50 (50% inhibitory concentration) values.

As for `CS(=O)(=O)N(CCO)c1c(Cl)c(Cl)cc2[nH]c(=O)c(=O)[nH]c12` (racemic) [Example 17, (RS)-N-(f1,4-Dihydro-6,7-dichloro-2,3-dioxoquinoxaline-5-yl)-N-(2-hydroxyethyl)methanesulphonamide], the IC50 was less than 50 nM. In the case of `CS(=O)(=O)N(CC(=O)O)c1c(Cl)c(Cl)cc2[nH]c(=O)c(=O)[nH]c12` (racemic) [Example 70, (RS)-N-(Carboxymethyl)-N-(1,4-dihydro-6,7-dichloro-2,3-dioxoquinoxaline-5-yl)methanesulphonamide] it was less than 50 nM; in that of `CCS(=O)(=O)Nc1c(Cl)c(Cl)cc2[nH]c(=O)c(=O)[nH]c12` [Example 1, N-(1,4-Dihydro-6,7-dichloro-2,3-dioxoguinoxalin-5-yl)ethanesulphonamide], less than 50 nM.

The molecule `CN(c1c(Cl)c(Cl)cc2[nH]c(=O)c(=O)[nH]c12)S(C)(=O)=O` [Example 8] registered an IC50 of less than 50 nM. In the case of `CS(=O)(=O)N(CCCO)c1c(Cl)c(Cl)cc2[nH]c(=O)c(=O)[nH]c12` [Example 29] it was less than 50 nM. Then `CCc1c(Cl)cc2[nH]c(=O)c(=O)[nH]c2c1N(CCO)S(C)(=O)=O` [Example 40], with less than 50 nM; and `Cn1c(CN(c2c(Cl)c(Cl)cc3[nH]c(=O)c(=O)[nH]c23)S(C)(=O)=O)nc2ccccc21` [Example 56], with less than 50 nM.
